Where “and” joins values, the source holds several entries; their conditions need not be identical. Equal entries are not always repeated.
Biological target: human GSK-3β (Homo sapiens (Human), UniProt P49841)
Experiment: Activity on human GSK-3β, substrate phosphorylation measured by LANCE technology
Format: biochemical
Conditions: duplicate; for IC50: LANCE phosphorylation assay, five concentrations 100 μM to 10 nM, read-out: IC50
Protocol: Activity on human GSK-3β was assessed using the following methods (according to Meijer et al., Chem. Biol., 2003-10:1255-1266).
In a first screening assay, compounds were tested in duplicate at a concentration of 10 μM.
Human recombinant enzyme GSK-3β was incubated for 90 minutes at 22° C. in the presence of compounds or vehicle in a reaction buffer containing ATP plus 100 nM unphosphorylated specific substrate peptide (Ulight-[…]-amide). Substrate phosphorylation was measured by LANCE technology (PerkinElmer, Conn., USA).
The results, reported in the following Table 4, are expressed as a percent of inhibition of control specific activity obtained in the presence of the test compounds (as % inhibition at 10 μm).
In a second assay, the same compounds were assayed at five concentrations ranging from 100 μM to 10 nM with ten-fold dilutions in duplicate. Compounds 1 to 7, 9, 11 and 13 to 26 were tested using the same first assay, compounds 8, 10, 12, and 27 to 31 were tested in another assay based on the binding and displacement of AlexaFluor® 647 labeled, ATP-competitive Kinase inhibitor scaffold using LanthaScreen™ TR-FRET technology Eu Kinase assay packet according to manufacturer's instruction (Life Technologies, Italy).
The IC50 values (concentration causing a half maximal inhibition of control specific activity), reported in table 4, were determined by non-linear regression analysis of the inhibition curves generated with mean replicate values using Hill equation curve fitting.

[1] = 10 μM, human recombinant GSK-3β, 90 minutes at 22° C.

Sequence of human GSK-3β (P49841 whole entry): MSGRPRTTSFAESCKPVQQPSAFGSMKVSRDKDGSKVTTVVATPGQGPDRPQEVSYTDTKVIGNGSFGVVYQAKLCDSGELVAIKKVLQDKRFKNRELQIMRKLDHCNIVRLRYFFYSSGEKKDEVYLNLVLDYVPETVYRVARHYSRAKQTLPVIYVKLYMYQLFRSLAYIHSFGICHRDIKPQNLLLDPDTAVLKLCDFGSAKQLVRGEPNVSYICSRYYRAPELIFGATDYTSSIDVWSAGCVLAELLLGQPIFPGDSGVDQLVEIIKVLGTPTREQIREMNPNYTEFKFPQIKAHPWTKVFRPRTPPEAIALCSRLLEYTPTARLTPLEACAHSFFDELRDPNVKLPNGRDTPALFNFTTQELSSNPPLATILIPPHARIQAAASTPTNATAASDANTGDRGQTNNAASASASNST

Structure (SMILES)	% Inhibition [10 μM] [1]	inhibition at 10 µM [1]	IC50
COc1ccc(CCN2CCC(CNC(=O)c3n[nH]c4ccc(OC)cc34)CC2)cc1 [Compound 2, 5-methoxy-N-({1-[2-(4-methoxyphenyl)ethyl]piperidin-4-yl}methyl)-1H-indazole-3-carboxamide]	91%	> 90%	< 0.6 µM and 0.56 µM
COc1ccc2[nH]nc(C(=O)NCC3CCN(Cc4ccc(Cl)cc4Cl)CC3)c2c1 [Compound 3, N-{[1-(2,4-dichlorobenzyl)piperidin-4-yl]methyl}-5-methoxy-1H-indazole-3-carboxamide]			0.31 µM
COc1ccc2[nH]nc(C(=O)NCC3CCN(Cc4ccc(C(F)(F)F)cc4)CC3)c2c1 [Compound 4, 5-methoxy-N-({1-[4-(trifluoromethyl)benzyl]piepridin-4-yl}methyl)-1H-indazole-3-carboxamide]			0.64 µM
COc1ccc2[nH]nc(C(=O)NCC3CCN(Cc4ccc(OCc5ccccc5)cc4)CC3)c2c1 [Compound 5, N-({1-[4-(benzyloxy)benzyl]piperidin-4-yl}methyl)-5-methoxy-1H-indazole-3-carboxamide]			0.35 µM
COc1ccc2[nH]nc(C(=O)NCC3CCN(Cc4ccc(O)cc4)CC3)c2c1 [Compound 6, N-{[1-(4-hydroxybenzyl)piperidin-4-yl]methyl}-5-methoxy-1H-indazole-3-carboxamide]			0.4 µM
COC(=O)c1coc(CN2CCC(CNC(=O)c3n[nH]c4ccc(Br)cc34)CC2)n1 [Compound 11, Methyl 2-{[4-({[(5-bromo-1H-indazol-3-yl)carbonyl]amino}methyl)piperidin-1-yl]methyl}-1,3-oxazole-4-carboxylate]			0.36 µM
CCOC(=O)c1nc(CN2CCC(CNC(=O)c3n[nH]c4ccc(OC)cc34)CC2)cs1 [Compound 13, Ethyl 4-{[4-({[(5-methoxy-1H-indazol-3-yl)carbonyl]amino}methyl)piperidin-1-yl]methyl}-1,3-thiazole-2-carboxylate]			0.95 µM
COc1ncccc1-c1ccc2[nH]nc(C(=O)NCC3CCN(Cc4ccc(C(=O)O)o4)CC3)c2c1 [Compound 16, 5-({4-[({[5-(2-Methoxypyridin-3-yl)-1H-indazol-3-yl]carbonyl}amino)methyl]piperidin-1-yl}methyl)furan-2-carboxylic acid hydrate]			0.36 µM

The remaining lines, values ahead:

% Inhibition [10 μM] [1]	inhibition at 10 µM [1]	IC50	Structure (SMILES)
		0.21 µM	COC(=O)c1coc(CN2CCC(CNC(=O)c3n[nH]c4ccc(OC)cc34)CC2)n1 [Compound 9, Methyl 2-{[4-({[(5-methoxy-1H-indazol-3-yl)carbonyl]amino}methyl)piperidin-1-yl]methyl}-1,3-oxazole-4-carboxylate]
		0.23 µM	COC(=O)c1ccoc1CN1CCC(CNC(=O)c2n[nH]c3ccc(OC)cc23)CC1 [Compound 14, Methyl 2-{[4-({[(5-methoxy-1H-indazol-3-yl)carbonyl]amino}methyl)piperidin-1-yl]methyl}furan-3-carboxylate]
		0.26 µM	CCOC(=O)c1ccc(CN2CCC(CNC(=O)c3n[nH]c4ccc(Br)cc34)CC2)o1 [Compound 15, Ethyl 5-{[4-({[(5-bromo-1H-indazol-3-yl)carbonyl]amino}methyl)piperidin-1-yl]methyl}furan-2-carboxylate]
		0.02 µM	COc1ccc(-c2ccc3[nH]nc(C(=O)NCC4CCN(Cc5ccc(C(=O)O)o5)CC4)c3c2)cn1 [Compound 17, 5-({4-[({[5-(6-Methoxypyridin-3-yl)-1H-indazol-3-yl]carbonyl}amino)methyl]piperidin-1-yl}methyl)furan-2-carboxylic acid hydrate]
		0.3 µM	COc1ccc(-c2ccc3[nH]nc(C(=O)NCC4CCN(Cc5ccc(C(=O)O)o5)CC4)c3c2)cc1 [Compound 18, 5-({4-[({[5-(4-Methoxyphenyl)-1H-indazol-3-yl]carbonyl}amino)methyl]piperidin-1-yl}methyl)furan-2-carboxylic acid hydrate]

Reference: patent US9163013B2, “Use of 1H-indazole-3-carboxamide compounds as glycogen synthase kinase 3 beta inhibitors” (AZIENDE CHIMICHE RIUNITE ANGELINI FRANCESCO A.C.R.A.F. …, priority 2012, dated 2015)
